Reference: paper PMC9504208, “Comprehensive Study of Antiretroviral Drug Permeability at the Cervicovaginal Mucosa via an In Vitro Model” (Pharmaceutics, 2022)
Where two headings read alike, the source gives them in different places.

How the values were obtained:
[1] = tested on: HEC-1A monolayer; experiment: Darunavir transfer across low-pH-adapted HEC-1A monolayers at apical pH 7.5 or 5.5 (LC-MS/MS); assay type: in vitro ADME, human; conditions: 2 h, n = 10
[2] = in vitro; conditions: human, pH 7.4
[3] = tested on: HEC-1A cell layers
[4] = tested on: HEC-1A barrier model; experiment: Permeability of labelled drug across HEC-1A model on coadministration with a second ARV; assay type: in vitro ADME, human; conditions: labelled drug 10 µM
[5] = tested on: HEC-1A cell layers; experiment: Permeability across HEC-1A cell layers stimulated with poly(I:C); conditions: p > 0.05, ANOVA
[6] = tested on: HEC-1A cells; experiment: Cell-associated drug and distribution between apical and basolateral compartments after absorptive permeability assay; assay type: in vitro ADME, human;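 also: transwell transport run over 2 h at 37 °C, radiolabelled drug quantified by liquid scintillation counting, with insert membranes also counted for mass balance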
[7] = ref DrugBank; cited from earlier work
[8] = Bi-directional permeability (Papp) across HEC-1A dual chamber (Transwell) barrier model; assay type: in vitro ADME; conditions: human; for Papp A→B at 2 h: read-out: Absorptive permeability Papp
Procedure: The apical chambers of 12-well polycarbonate and polyester systems (Corning Costar Corp, Cambridge, UK) were seeded with different densities of HEC-1A cells in 500 µL of the medium while 1500 µL culture medium was added to the basolateral chamber. -Medium in both chambers was changed every 48–72 h.

[9] = Cell-associated drug and distribution between apical and basolateral compartments after absorptive permeability assay; assay type: in vitro ADME, human; conditions: human, pH 7.4; 0.2% Poloxamer in receiver; read-out: Recovery from the apical compartment;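 also: transwell transport run over 2 h at 37 °C, radiolabelled drug quantified by liquid scintillation counting, with insert membranes also counted for mass balance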

SMILES: CC(C)CN(C[C@@H](O)[C@H](Cc1ccccc1)NC(=O)O[C@H]1CO[C@H]2OCC[C@H]21)S(=O)(=O)c1ccc(N)cc1 [darunavir, Darunavir]
- % of darunavir transferred to the receiver compartment, absorptive direction ([1]; apical pH 5.5, basal pH 7.5, p < 0.001): 30.1 ± 6.0%
- % of darunavir transferred to the receiver compartment, absorptive direction ([1]; apical pH 7.5): 20 ±2.8%
- Papp at 2 h, 10 µM [2]: 8.24 ± 0.6 ×10⁻⁶ cm/s
- Papp [3]: 8.45 ± 0.68 ×10⁻⁶ cm/s
- Absorptive permeability on coadministration with dapivirine ([4]; dapivirine 0–10 µM): not altered
- Permeabilities on coadministration with tenofovir ([4]; tenofovir 0–100 µM): no effect
- Difference in Papp (A-B or B-A), poly(I:C)-stimulated vs unstimulated cell layers [5]: no significant differences
- % Drug Distribution Apical ([6]; 1 μM): 82.90 ± 1.76%
- % Drug Distribution Basolateral ([6]; 1 μM): 15.13 ± 1.44%
- % Drug Distribution Apical ([6]; 5 μM): 83.15 ± 2.61%
- % Drug Distribution Basolateral ([6]; 5 μM): 14.55 ± 1.88%
- % Drug Distribution Cell-Associated ([6]; 5 μM): 2.55 ± 1.22%
- % Drug Distribution Apical ([6]; 10 μM): 83.36 ± 2.12%
- % Drug Distribution Basolateral ([6]; 10 μM): 13.95 ± 1.75%
- % Drug Distribution Cell-Associated ([6]; 10 μM): 2.70 ± 1.31%
- % Drug Distribution Apical ([6]; 20 μM): 81.72 ± 1.61%
- % Drug Distribution Basolateral ([6]; 20 μM): 15.31 ± 1.22%
- % Drug Distribution Cell-Associated ([6]; 20 μM): 2.97 ± 1.27%
- Cell-associated drug (HEC-1A cells) ([6]; after absorptive permeability assays): ≤ 3%
- logP [7]: 2.82
- Papp A→B at 2 h ([8]; pH 7.4): 9.66 to 11.2 ×10⁻⁶ cm/s
- Papp B→A at 2 h ([8]; pH 7.4, read-out: Secretory permeability Papp): 8.59 to 9.42 ×10⁻⁶ cm/s

SMILES: Cc1cc(C)c(Nc2ccnc(Nc3ccc(C#N)cc3)n2)c(C)c1 [dapivirine, Dapivirine]
- Absorptive permeability on coadministration with tenofovir or darunavir [4]: not affected
- % Drug Distribution Apical ([6]; 0.1 μM): 15.04 ± 0.55%
- % Drug Distribution Basolateral ([6]; 0.1 μM): 2.87 ± 0.26%
- % Drug Distribution Cell-Associated ([6]; 0.1 μM): 82.10 ± 0.30%
- % Drug Distribution Apical ([6]; 0.1 μM + Poloxamer): 16.06 ± 3.26%
- % Drug Distribution Basolateral ([6]; 0.1 μM + Poloxamer): 10.56 ± 1.26%
- % Drug Distribution Cell-Associated ([6]; 0.1 μM + Poloxamer): 73.37 ± 3.37%
- % Drug Distribution Apical ([6]; 1 μM): 14.72 ± 0.10%
- % Drug Distribution Basolateral ([6]; 1 μM): 2.13 ± 0.33%
- % Drug Distribution Cell-Associated ([6]; 1 μM): 83.15 ± 0.35%
- % Drug Distribution Apical ([6]; 1 μM + Poloxamer): 16.47 ± 2.86%
- % Drug Distribution Basolateral ([6]; 1 μM + Poloxamer): 11.01 ± 1.41%
- % Drug Distribution Cell-Associated ([6]; 1 μM + Poloxamer): 72.51 ± 2.86%
- % Drug Distribution Apical ([6]; 5 μM): 14.98 ± 0.76%
- % Drug Distribution Basolateral ([6]; 5 μM): 1.86 ± 0.41%
- % Drug Distribution Cell-Associated ([6]; 5 μM): 83.16 ± 1.15%
- % Drug Distribution Apical ([6]; 5 μM + Poloxamer): 17.47± 2.76%
- % Drug Distribution Basolateral ([6]; 5 μM + Poloxamer): 10.78 ± 1.18%
- % Drug Distribution Cell-Associated ([6]; 5 μM + Poloxamer): 71.75 ± 2.33%
- % Drug Distribution Apical ([6]; 10 μM): 14.52 ± 0.45%
- % Drug Distribution Basolateral ([6]; 10 μM): 2.09 ± 0.18%
- % Drug Distribution Cell-Associated ([6]; 10 μM): 83.39 ± 0.55%
- % Drug Distribution Apical ([6]; 10 μM + Poloxamer): 17.59 ± 3.41%
- % Drug Distribution Basolateral ([6]; 10 μM + Poloxamer): 11.72 ± 1.34%
- % Drug Distribution Cell-Associated ([6]; 10 μM + Poloxamer): 70.69 ± 2.76%
- Recovery from the apical compartment after absorptive permeability assays ([6]; % of initial concentration, no Poloxamer): 15–16%
- recovery at 2 h [9]: 19 to 21%
- logP [7]: 5.6
- Papp A→B at 2 h ([8]; pH 7.4, dapivirine 0.1–10 µM in 1% DMSO, 0.2% (w/v) Poloxamer in basolateral receiver): 9.52 to 11.5 ×10⁻⁶ cm/s
- Papp A→B at 2 h ([8]; pH 7.4, dapivirine 0.1–10 µM in 1% DMSO, no Poloxamer in receiver): 2.5 to 2.61 ×10⁻⁶ cm/s
